From patent US12485192B2, “Cellular targeted label delivery system” (CELLIS AG, priority 2016, dated 2025)

How the values were obtained:
metastatic 4T1 cancer = conditions: mouse, in vivo, iv
Excerpt: After labeling, cells should be centrifuged and supernatant should be removed. This step should be repeated until no radioactivity is detected in the supernatant.

[1] = tested on: CD45+ leukocyte cells (macrophages, monocytes, lymphocytes, granulocytes); assay: Uptake of iron binding proteins by CD45+ leukocyte cells in culture; assay type: cell-based, mouse; conditions: incubation 1-4 hrs, 0.1-0.2 mg/ml protein solution, standard culture conditions; FIG. 5
Protocol: Obtained cells are incubated in ferritin solution for a time and at the concentration sufficient to ensure proper ratio of ferritin/cell for their full load and also to ensure proper contrast content to obtain proper imaging). The time and concentration may vary depending on the number of molecules encapsulated/adsorbed into the ferritin cage, status of cell activation, condition and number of their intended administration.
For example, to ensure proper load with ferritins, cells are incubated for 1-4 hrs in ferritin solution 0.2 mg/ml in standard culture conditions. The frame of ferritin concentration may vary at least between 0.01 and 4 mg/ml as well as incubation time (5 min-6 hrs or more). Adjusting time and concentration of ferritin load to cells, the influence of ferritin and treatment conditions on cell viability should be minded.
Obtained cells are incubated in haemoglobin solution for a time and at the concentration sufficient to ensure proper ratio of haemoglobin/cell for their full load and also to ensure proper contrast content to obtain proper imaging. The time and concentration may vary depending on the number of molecules linked with the haemoglobin molecule, status of cell activation, condition and number of their intended administration. […]

| Substance | PET signal (metastatic 4T1 cancer) | uptake of iron binding protein by cells [1] |
| --- | --- | --- |
| 18F fluorodeoxyglucose [plain 18F-1-DG] | lower PET signal |  |
| haemoglobins: human haemoglobin prepared from fresh red cells |  | very easily uptake |
| transferrin: human holo-transferrin purified from serum of healthy donor |  | very easily uptake |
